Results reported in PMC7473840, “Identification of a molecular locus for normalizing dysregulated GABA release from interneurons in the Fragile X brain” (Molecular Psychiatry, 2018).

What was measured:
[1] = tested on: PNs, Fmr1-KO cerebellar slices; experiment: Spontaneous firing of PNs, cell-attached, Fmr1-KO; assay type: cell-based, mouse; details: 10 μM, Fmr1-KO
[2] = tested on: PNs, WT cerebellar slices; experiment: Spontaneous firing of PNs, cell-attached, WT; assay type: cell-based, mouse; details: 10 μM
BC–PN synapse, WT = experiment: sIPSCs from PNs, paired BC–PN recording, WT synapses; assay type: cell-based, mouse; details: peptide 2.5 mM infused into WT BCs, before and 20 min after; n = 5-6
[3] = target: T1, recombinant full-length FMRP (isoform 1) (Homo sapiens, UniProt Q06787); experiment: In vitro intrinsic protein fluorescence binding assay; details: 500–1000 μM peptide and 1 μM FMRP, 100 mM NaCl, 50 mM Na2PO4 pH 7.4, 2 mM DTT, 20 °C, excitation 287 nm
T1 construct: containing cDNA for full-length human FMRP; His-SUMO (N, cleaved yes); made in house; host or cells: Escherichia coli BL21 (DE3) Codon Plus
Method: Small Ubiquitin-like Modifier (SUMO) fusion construct containing cDNA for full-length human FMRP was generated by gene synthesis (GenScript USA Inc.) and subcloned into a pET SUMO vector (Invitrogen). […] The pET SUMO–FMRP construct was transformed into Escherichia coli BL21 (DE3) Codon Plus cells and grown at 37 °C in Lennox broth medium. Protein expression was induced with 0.5 mM isopropyl-β-D-thiogalactopyranoside when optical density reached ~0.6, followed by 18 h of additional growth at 16 °C. Cells were harvested by centrifugation and pellets stored at −20 °C. In order to purify SUMO–FMRP, thawed pellets were resuspended in lysis buffer [50 mM Tris, pH 8.0, 500 mM NaCl, 20 mM imidazole, 10% glycerol, 250 mM arginine, 5 mM benzamidine, and 2 mM dithiothreitol (DTT)], supplemented with DNAse 1 and cOmplete™ Protease Inhibitor Cocktail (Sigma-Aldrich). After cell lysis and centrifugation, the filtered supernatant was loaded onto a 20 ml NiNTA column equilibrated in the same lysis buffer. The column was extensively washed with 20 column volumes (CV) of the same buffer supplemented with 100 mM imidazole. Elution of SUMO-fusion FMRP was performed using 100–500 mM imidazole gradient, and protein-containing fractions were combined and a 6× His tagged Ulp protease was added. Cleavage of the His-SUMO tag was performed overnight in a cold room (7 °C) while dialyzing in 4 L of 50 mM Tris, pH 8.0, 500 mM NaCl, 50 mM imidazole, 10% glycerol, 250 mM arginine, 5 mM benzamidine, and 2 mM DTT. Complete cleavage of the SUMO tag by Ulp was confirmed by SDS-PAGE and the protein of interest was separated from the Ulp protease and SUMO tag by passing the cleavage reaction over a second NiNTA column. Flow-through and wash fractions containing protein of interest were combined and then loaded onto a Superdex 200 gel filtration column pre-equilibrated with the same lysis buffer.
The eluted purified proteins were analyzed by both SDS-PAGE and mass spectrometry, and the combined fractions were dialyzed three times in 5 L of Fluorescence Binding Buffer (100 mM NaCl, 50 mM Na2PO4 pH 7.4, 2 mM DTT). After filtering through a 0.22 μm GV Durapore Centrifugal Filter Unit (Millipore), FMRP concentration was determined by absorbance at 280 nm using a molar extinction coefficient of 48,360 M^−1 cm^−1, and the protein was used for binding studies with Kv1.2 C-terminal peptides.
All measurements were carried out in the Fluorescence Binding Buffer at 20 °C using a PTI Quanta Master 80 Spectrofluorometer (HORIBA Scientific) by monitoring intrinsic protein fluorescence with an excitation wavelength of 287 nm. Prior to performing a binding titration for any of the peptides, a full emission spectrum (300–450 nm) of the peptide:FMRP complex was compared to that of apo-FMRP. Differences in the spectrum of the complex (500–1000 μM peptide and 1 μM FMRP) and apo-FMRP at the same concentration (i.e., fluorescence quenching, enhancement or shifts of the emission maximum) indicated binding. For each of these peptides, binding measurements were performed by adding aliquots of saturated 1 µM FMRP:peptide complex (titration solution) to 400 μL of 1 μM apo-FMRP solution as described by Wells and Di Cera. Briefly, at each titration step, a volume vD was removed from the cuvette containing the apo-FMRP and replaced by an equal volume of the titration solution (1 μM FMRP: 200–500 μM peptide complex). As a result, the concentration of FMRP (1 μM) and total volume of solution in the cuvette, V = 400 μL, remained constant while the concentration of the peptide at the ith titration step, [peptide]i, was increased, and given by
[peptide]i = [peptide]0^i.D^i+[peptide]∞^i.(1 − D^i),
where, [peptide]0 was the initial peptide concentration in the cuvette, [peptide]∞ was the peptide concentration in the titration solution, and D was the dilution factor, D = (V − vD)/V. […]

[4] = tested on: Kv1.2–FMRP interaction, cerebellar homogenates; experiment: Co-IP of Kv1.2 with FMRP (anti-FMRP antibody), peptide blocking; assay type: binding; details: WT mouse cerebellar homogenates; 250 μM peptide added prior to anti-FMRP antibody; immunoblot; at least in triplicate
Method: Whole cerebellums from WT and Fmr1 KO mice were homogenized in ice-cold Pull-Down buffer (1% Lubrol, 50 mM Tris–HCl, pH 7.4, 10 nM Na-orthovanadate, 30 mM Na-pyrophosphate, 50 mM NaF, 20 μm ZnCl2, and 0.25 mM PMSF, with the addition of protease inhibitor cocktail) using a Potter-Elvehjem grinding chamber (VWR). Samples were then centrifuged at 5000g for 20 min and 500 μL of supernatants were transferred into 1.5 ml Eppendorf tubes. 1:100 dilutions of anti-FMRP (Abcam 17722), anti-Kv1.2 (K14/16; Neuromab), anti-Kv1.2 ext-c (extracellular; Alomone labs), anti-Kv1.2 N-term (NBP1-42802; Novus), or anti-GAPDH (GAPDH-71.1; 1:80,000; Sigma-Aldrich) antibodies were added to the homogenate and incubated at 4 °C under continuous agitation for 2 h. A total 30 μL of a 1:1 mixture of pre-washed protein A and protein G magnabeads (Genscript) was then added and the samples were incubated under the same conditions for another 2 h. Beads were washed 4 times with PBS-Tween (0.2% Tween w/v) and then centrifuged at 3000g for 1 min. A sample was kept to verify total protein input. Protein was disassociated from the beads with the addition of 30 μL of 2× loading buffer (4% SDS, 20% glycerol w/v, 0.1 M dithiothreitol, 100 mM Tris–HCl, pH 6.8) then submitting the samples to 3 min at 95 °C. […] Bands were quantified as previously described using the AlphaEase SA software. […]

Row | Compound | spontaneous firing of PNs, KO [1] | spontaneous firing of PNs, WT [2] | amplitude and frequency of sIPSCs (BC–PN synapse, WT) | change of fluorescence emission spectrum of FMRP (binding) [3] | change of fluorescence emission spectrum of FMRP (binding) ([3]; listed as doubly-phosphorylated scrambled peptide) | inhibition of Kv1.2–FMRP binding (co-IP) [4]
1 | NS(=O)(=O)c1cccc2c1c([N+](=O)[O-])cc1nc(O)c(O)nc12 [NBQX] | little effect on the spontaneous firing | little effect on the spontaneous firing |  |  |  | 
2 | IKPSTLSDSRAKpSSDPpSKPSIK [scrambled] |  |  | but not the non-phosphorylated or scrambled phosphorylated peptide, significantly elevated the amplitude and frequency of sIPSCs | no change in the fluorescence emission spectrum of FMRP | no binding | Neither the non-phosphorylated peptide with the identical sequence (Kv436-457, ^436PKIPSSPDLKKSRSASTISKSD^457) nor the doubly-phosphorylated scrambled peptide (IKPSTLSDSRAKpSSDPpSKPSIK) inhibited the Kv1.2–FMRP binding activity
